Results as given in patent US9856480B2, “Dnazyme for silencing the expression of EGFR” (DCB-USA LLC, priority 2013, dated 2018).
Strand notation (5' to 3'): a small letter for the sugar, then the base; units joined by * are phosphorothioate-linked, units joined directly phosphodiester-linked; [ ] holds rarer units or linkages, { } end groups; capitals alone tell only the bases. d = 2'-deoxy (DNA)

Experiments:
Type in all cases: cell-based, human
T790M EGFR mRNA [1] = experiment: Real-time PCR of EGFR mRNA knockdown; settings: 100 nM with lipofectamine 2000, 48 h
Method: (§1) A549, CL1-5, H1975, or CL97 was seeded onto 6-well at 3×10^5 cells/well and cultured overnight. Then, cells were separately treated with 100 nM DzControl or DzT790M-1 with lipofectamine 2000 (Invitrogen). After 48 h, total mRNA were extracted from DNAzyme-treated cells by Mestrisol following manufacturer's protocol. cDNA were synthesized by using RT III kit with random hexamers as primers (Invitrogen). The PCR primers were synthesized by Genomics BioSci & Tech (Taipei, Taiwan). The sequences of PCR primers are listed as follows: […]
(§2) The parameters for PCR were: 95° C. for 10 min, then 25 cycles of PCR at 95° C. for 30 s, 60° C. for 30 s, and 72° C. for 60 s. 3% agarose gels were used for electrophoresis of PCR products. The intensity of bands were quantified by Image J. Quantitative RT-PCR was performed on 40 ng total mRNA with the LightCycler 480 system (Roche). The PCR mix contained 5 μl of 2× Probe Master mix, 100 nM of UPL probe (Roche Diagnostics, Penzberg, Germany), 200 nM of forward primer and reverse primer, 0.1 ul RNAseout (Invitrogen), and 0.025 ul RTIII enzyme (Invitrogen) in a total volume of 10 μl. PCR parameters were as follows: 50° C. for 40 min, then 45 cycles of PCR at 95° C. for 10 s, 60° C. for 10 s, and 72° C. for 2 s. Data were analyzed by LC480 software (Roche Diagnostics, Penzberg, Germany). The relative amount of EGFR mRNA was normalized to ACTB mRNA. The sequences of PCR primers are as follows: […]
(§3) To examine the allele selectivity of DzT790M-1, EGFR mRNA knockdown efficiency was detected in two cell lines harboring wild-type EGFR (A549, CL1-5) and two cell lines containing EGFR T790M mutation (H1975, CL97). A549, CL1-5, H1975, or CL97 was seeded onto 6-well at 3×10^5 cells/well and cultured overnight. Then, cells were separately treated with 100 nM DzControl or DzT790M-1 with lipofectamine 2000 (Invitrogen). After 48 h, total mRNA was extracted. […] DzT790M-1 knocked down 68.2% and 77.4% T790M EGFR mRNA expression in H1975 and CL97 cells respectively. In contrast, in A549 and CL1-5 cells, only 1.1% and 19.2% wild-type EGFR mRNA expression was affected.

wild-type EGFR mRNA = experiment: Real-time PCR of EGFR mRNA knockdown; settings: 100 nM with lipofectamine 2000, 48 h
Method: as §1, §2, §3

CL97 cells (EGFR T790M) = experiment: Cell proliferation assay (cell counting); settings: 100 nM, 0-72 h after transfection
Method: (§4) A549, CL1-5, H1975, or CL97 was seeded onto 6-well and cultured overnight. Then, cells were separately treated with 100 nM DzControl or DzT790M-1 with lipofectamine 2000 (Invitrogen). Cells were trypsinized and counted at 0 h, 24 h, 48 h, or 72 h after transfection.
(§5) EGFR and downstream signaling pathway regulates important cell functions including cell proliferation and survival. In order to examine functional effects of DzT790M-1 on cell survival, the number of cells was counted after DzControl or DzT790M-1 transfection respectively. In A549 and CL1-5 cells (EGFR wild-type), the rate of cell proliferation or the cell number was not different between DzControl and DzT790M-1 transfected group (FIGS. 4A and 4B). In H1975 and CL97 cells (EGFR T790M), DzControl transfected cells were continued to grow after transfection when the number of DzT790M-1 treated cells was reduced (FIGS. 4C and 4D). In order to figure out whether DzT790M-1 treated cells undergoes cell apoptosis, immunoblotting against cleaved form of PARP and immunostaining of annexin V and PI were performed. The cleavage of PARP is caused by increased activity of caspase-3 and serves as a marker for cell apoptosis. […] While only 3.6% of cells underwent apoptosis and 12.4% of cells were dead in DzControl transfected H1975 cells, 18.6% of cells were detected as apoptotic cells and 32.6% of cells were annexin V and PI double positive in DzT790M-1 treated group (FIG. 4F).

[2] = test system: CL1-5 cells (EGFR wild-type); experiment: Cell proliferation assay (cell counting); settings: 100 nM, 0-72 h after transfection
Method: as §4, §5

H1975 cells (EGFR T790M) [3] = experiment: Cell proliferation assay (cell counting); settings: 100 nM, 0-72 h after transfection
Method: as §4, §5

[4] = test system: A549 cells (EGFR wild-type); experiment: Cell proliferation assay (cell counting); settings: 100 nM, 0-72 h after transfection
Method: as §4, §5

T790M EGFR mRNA [5] = experiment: Quantitative real-time PCR of EGFR mRNA knockdown; settings: for T790M EGFR mRNA expression knocked down (quantitative real-time PCR): 100 nM, 48 h
Method: as §1, §2, §3

cleaved PARP = experiment: Immunoblotting against cleaved form of PARP; settings: H1975 and CL97 cells; 100 nM
Method: A549, CL1-5, H1975, or CL97 was seeded onto 6-well at 3×10^5 cells/well and cultured overnight. Then, cells were separately treated with 100 nM DzControl or DzT790M-1 with lipofectamine 2000 (Invitrogen). The transfected A549 and CL1-5 cells were serum-starved for 24 h and treated with 100 ng/ml of EGF at 37° C. for 15 min. 72 h after transfection, cell were collected for analysis. Cells were washed twice by ice-cold PBS and then total protein was extracted by RIPA buffer with protease inhibitor (Roche). 50 μg of total protein from the supernatants were boiled for 5 min at 95° C. The samples were resolved on 10% SDS-PAGE gel and transferred onto nitrocellulose membranes. EGFR expression and downstream signaling were detected by using primary antibodies specific to human pEGFR(Y1068) (Cell signaling), tEGFR (Santa Cruz), pSTAT3 (Y705) (Cell signaling), tSTAT3 (Cell signaling), pAKT (5473)(Cell signaling), tAKT (Santa Cruz), pERK (T202/Y204) (Cell signaling), tERK (Santa Cruz), and cleaved PARP (Cell signaling) at 1:1000 dilution and β-actin (Santa Cruz) at 1:10000 dilution, respectively. […]
EGFR and downstream signaling pathway regulates important cell functions including cell proliferation and survival. In order to examine functional effects of DzT790M-1 on cell survival, the number of cells was counted after DzControl or DzT790M-1 transfection respectively. […]

H1975 cells (EGFR T790M) [6] = experiment: Cell viability assay (MTT); settings: 100 nM by lipofectamine transfection, 72 h

## DzT790M-1: 10-23 DNAzyme against EGFR T790M mRNA, arms 10/4, phosphorothioate ends: AGCTGCATGAGGCTAGCTACAACGAGAGC (DNA dA*dGdCdTdGdCdAdTdGdAdGdGdCdTdAdGdCdTdAdCdAdAdCdGdAdGdAdG*dC; further chemistry not fully specified)
T790M EGFR mRNA [1]; CL97 cells
  remained EGFR mRNA expression (real-time PCR): 54%
T790M EGFR mRNA [1]; H1975 cells
  remained EGFR mRNA expression (real-time PCR): 32%
wild-type EGFR mRNA; A549 cells
  remained EGFR mRNA expression (real-time PCR): 121%
wild-type EGFR mRNA; CL1-5 cells
  remained EGFR mRNA expression (real-time PCR): 95%
CL97 cells (EGFR T790M)
  number of cells after transfection: reduced
[2]
  rate of cell proliferation or cell number vs DzControl transfected group: not different
H1975 cells (EGFR T790M) [3]
  number of cells after transfection: reduced
[4]
  rate of cell proliferation or cell number vs DzControl transfected group: not different
T790M EGFR mRNA [5]; CL97 cells
  T790M EGFR mRNA expression knocked down (quantitative real-time PCR): 77.4%
T790M EGFR mRNA [5]; H1975 cells
  T790M EGFR mRNA expression knocked down (quantitative real-time PCR): 68.2%
T790M EGFR mRNA [5]; quantitative real-time PCR, H1975, CL97 vs A549, CL1-5
  increased knockdown efficiency toward T790M EGFR mRNA over wild-type counterpart: at least 3.5 fold
Cleaved PARP
  level of cleaved PARP compared to DzControl treated group: increased level
H1975 cells (EGFR T790M) [6]
  anti-proliferation effect: 50%
